Drawing on patent US6472391B2, “Nitrogen-containing heterocyclic compounds” (Millennium Pharmaceuticals, Inc., priority 1996, dated 2002), this text covers melting point for 37 compounds.

The structures appear in SMILES notation.

`COc1cccc2c(N3CCN(C(=O)Nc4ccc(Oc5ccccc5)cc4)CC3)ncnc12` [Compound 327, 4-(8-Methoxy-4-quinazolinyl)-N-(4-phenoxyphenyl)-1-piperazinecarboxamide] came in with a melting point of 108 to 109 °C.
Next, `COc1cc(NC(=S)N2CCN(c3ncnc4cc(OC)c(OC)cc34)CC2)cc(OC)c1` [Compound 67, N-(3,5-Dimethoxyphenyl)-4-(6,7-dimethoxy-4-quinazolinyl)-1-piperazinethiocarboxamide]: 240 to 241 °C; `COc1cc2ccnc(N3CCN(C(=O)Nc4ccc(Oc5ccccc5)cc4)CC3)c2cc1OC` [Compound 423, 4-(6,7-Dimethoxy-1-isoquinolyl)-N-(4-phenoxyphenyl)-1-piperazinecarboxamide]: 178 to 179 °C; `CCc1ccc(NC(=O)N2CCN(c3ncnc4cc(OC)c(OC)cc34)CC2)cc1` [Compound 18, N-(4-Ethylphenyl)-4-(6,7-Dimethoxy-4-quinazolinyl)-1-piperazinecarboxamide]: 251 to 252 °C.
On to `COc1ccc(CNC(=S)N2CCN(c3ncnc4cc(OC)c(OC)cc34)CC2)cc1OC` [Compound 205, N-(3,4-Dimethoxybenzyl)-4-(6,7-dimethoxy-4-quinazolinyl)-1-piperazinethiocarboxamide], for which the melting point fell in the range of 196 to 197 °C.
Regarding `COc1cc2ncnc(N3CCN(C(=O)Nc4cccc(F)c4)CC3)c2cc1OC` [Compound 35, 4-(6,7-Dimethoxy-4-quinazolinyl)-N-(3-fluorophenyl)-1-piperazinecarboxamide], the melting point is 214 to 220 °C.
`COc1cc2ncnc(N3CCN(C(=O)Nc4cccc(C)c4)CC3)c2cc1OC` [Compound 144, 4-(6,7-Dimethoxy-4-quinazolinyl)-N-(3-tolyl)-1-piperazinecarboxamide] registered a melting point of 218 to 219 °C.
For `COc1cc2ncnc(N3CCN(C(=S)NCC4CCCCC4)CC3)c2cc1OC` [Compound 138, N-Cyclohexylmethyl-4-(6,7-dimethoxy-4-quinazolinyl)-1-piperazinethiocarboxamide] the value was 170 to 171 °C; for `CCCOc1ccc(NC(=O)N2CCN(c3ncnc4cc(OC)c(OC)cc34)CC2)cc1` [Compound 201, 4-(6,7-Dimethoxy-4-quinazolinyl)-N-(4-propoxyphenyl)-1-piperazinecarboxamide], 218 to 220 °C; for `CCc1cccc(NC(=S)N2CCN(c3ncnc4cc(OC)c(OC)cc34)CC2)c1` [Compound 149, 4-(6,7-Dimethoxy-4-quinazolinyl)-N-(3-ethylphenyl)-1-piperazinethiocarboxamide], 195 to 197 °C.
As to `COc1cc2ncnc(N3CCN(C(=O)Nc4ccc(Cl)c([N+](=O)[O-])c4)CC3)c2cc1OC` [Compound 83, N-(4-Chloro-3-nitrophenyl)-4-(6,7-dimethoxy-4-quinazolinyl)-1-piperazinecarboxamide], the melting point was 253 to 255 °C.
Next, `Cc1ccc2c(N3CCN(C(=S)NCc4ccccc4)CC3)ncnc2c1` [Compound 314, N-Benzyl-4-(7-methyl-4-quinazolinyl)-1-piperazinethiocarboxamide]: 177 to 178 °C; `COc1cc2ncnc(N3CCN(C(=S)NC(=O)c4ccc([N+](=O)[O-])cc4)CC3)c2cc1OC` [Compound 232, 4-(6,7-Dimethoxy-4-quinazolinyl)-N-(4-nitrobenzoyl)-1-piperazinethiocarboxamide]: 103 to 105 °C; `COc1cc2ncnc(N3CCN(C(=O)Nc4ccc(SC)cc4)CC3)c2cc1OC` [Compound 69, 4-(6,7-dimethoxy-4-quinazolinyl)-N-(4-methylthiophenyl)-1-piperazinecarboxamide]: 231 to 233 °C.
Next, `COc1cc2ncnc(N3CCN(C(=O)NCc4ccc(C(C)C)cc4)CC3)c2cc1OC` [Compound 153, 4-(6,7-Dimethoxy-4-quinazolinyl)-N-(4-isopropylbenzyl)-1-piperazinecarboxamide]: 135 to 136 °C; `CCOc1cc2c(N3CCN(C(=O)Nc4ccc(C#N)cc4)CC3)ncnc2cc1OC` [Compound 347, N-(4-Cyanophenyl)-4-(6-ethoxy-7-methoxy-4-quinazolinyl)-1-piperazinecarboxamide]: 178 to 179 °C; `COC(=O)c1ccc(NC(=S)N2CCN(c3ncnc4cc(OC)c(OC)cc34)CC2)cc1` [Compound 249, 4-(6,7-Dimethoxy-4-quinazolinyl)-N-(4-methoxycarbonylphenyl)-1-piperazinethiocarboxamide]: 208 to 209 °C.
Next, `COc1cc2ncnc(N3CCCN(C(=S)NCc4ccccc4)CC3)c2cc1OC` [Compound 436, N-Benzyl-4-(6,7-dimethoxy-4-quinazolinyl)-1-homopiperazinethiocarboxamide]: 86 to 88 °C.
In turn, `COc1cc2ccnc(N3CCN(C(=S)NCc4ccccc4)CC3)c2cc1OC` [Compound 424, N-Benzyl-4-(6,7-dimethoxy-1-isoquinolyl)-1-piperazinethiocarboxamide] registered a melting point of 171 to 172 °C.
With `CCn1c(=O)n(C)c2cc3c(N4CCN(C(=S)NCc5ccccc5)CC4)ncnc3cc21` [Compound 388, N-Benzyl-4-(1,3-dihydro-3-ethyl-1-methyl-2-oxo-2H-imidazo[4,5-g]quinazolin-8-yl)-1-piperazinethiocarboxamide], the melting point is 207 to 208 °C.
`S=C(NCc1ccccc1)N1CCN(c2ncnc3cc4c(cc23)OCO4)CC1` [Compound 370, N-Benzyl-4-(6,7-methylenedioxy-4-quinazolinyl)-1-piperazinethiocarboxamide] had a melting point of 176 to 177 °C.
Next, `COc1cc2c(N3CCN(C(=S)NCc4ccccc4)CC3)ncnc2cc1OC(C)C` [Compound 341, N-Benzyl-4-(7-isopropoxy-6-methoxy-4-quinazolinyl)-1-piperazinethiocarboxamide]: 174 to 175 °C; `N#Cc1ccc(NC(=O)N2CCN(c3ncnc4cc5c(cc34)OCO5)CC2)cc1` [Compound 369, N-(4-Cyanophenyl)-4-(6,7-methylenedioxy-4-quinazolinyl)-1-piperazinecarboxamide]: 220 to 222 °C.
Compound `COc1cc2ncnc(N3CCN(C(=O)Nc4ccc(C)nc4)CC3)c2cc1OC` [Compound 271, 4-(6,7-Dimethoxy-4-quinazolinyl)-N-(2-methyl-5-pyridyl)-1-piperazinecarboxamide] yielded a melting point of 240 to 241 °C.
The compound `O=C(Nc1ccc(Oc2ccccc2)cc1)N1CCN(c2ncnc3c(I)cc(I)cc23)CC1` [Compound 380, 4-(6,8-Diiodo-4-quinazolinyl)-N-(4-phenoxyphenyl)-1-piperazinecarboxamide] displayed a melting point of 242 to 244 °C.
`COc1cc2ncnc(N3CCN(C(=S)NCc4ccc(F)cc4)CC3)c2cc1OC` [Compound 173, 4-(6,7-Dimethoxy-4-quinazolinyl)-N-(4-fluorobenzyl)-1-piperazinethiocarboxamide] had a melting point of 217 to 218 °C.
In the case of `O=C(Nc1ccc(Oc2ccccc2)cc1)N1CCN(c2nnc(Cc3ccccc3)c3ccccc23)CC1` [Compound 418, 4-(4-Benzyl-1-phthalazinyl)-N-(4-phenoxyphenyl)-1-piperazinecarboxamide], the melting point lay in the range of 100 to 101 °C.
`Cc1ccc2nc(C(F)(F)F)cc(N3CCN(C(=O)Nc4ccc(Oc5ccccc5)cc4)CC3)c2c1[N+](=O)[O-]` [Compound 413, 4-(6-Methyl-5-nitro-2-trifluoromethyl-4-quinolyl)-N-(4-phenoxyphenyl)-1-piperazinecarboxamide] registered a melting point of 197 to 198 °C.
The compound `CC(C)c1ccc(NC(=O)N2CCN(c3ncnc4c(Cl)cc(Cl)cc34)CC2)cc1` [Compound 376, 4-(6,8-Dichloro-4-quinazolinyl)-N-(4-isopropylphenyl)-1-piperazinecarboxamide] showed a melting point of 234 to 236 °C.
On to `CCOc1ccc(NC(=O)N2CCN(c3ncnc4cc(OC)c(OC)cc34)CC2)cc1` [Compound 57, 4-(6,7-Dimethoxy-4-quinazolinyl)-N-(4-ethoxyphenyl)-1-piperazinecarboxamide], for which the melting point fell in the range of 165 to 166 °C.
In the case of `COc1cc2ncnc(N3CCN(C(=O)Nc4cc(Cl)cc(Cl)c4)CC3)c2cc1OC` [Compound 55, N-(3,5-Dichlorophenyl)-4-(6,7-dimethoxy-4-quinazolinyl)-1-piperazinecarboxamide], the melting point was 139 to 140 °C.
`O=C(Nc1ccc(Oc2ccccc2)cc1)N1CCN(c2ncnc3cc4c(cc23)OCO4)CC1` [Compound 367, 4-(6,7-Methylenedioxy-4-quinazolinyl)-N-(4-phenoxyphenyl)-1-piperazinecarboxamide] had a melting point of 206 to 207 °C.
For `COc1cc2ncnc(N3CCN(C(=S)Nc4ccc(S(N)(=O)=O)cc4)CC3)c2cc1OC` [Compound 93, 4-(6,7-Dimethoxy-4-quinazolinyl)-N-(4-sulfamoylphenyl)-1-piperazinethiocarboxamide] the value was 172 to 180 °C.
Next, `COc1cc2ncnc(N3CCN(C(=S)NC(=O)c4ccco4)CC3)c2cc1OC` [Compound 95, 4-(6,7-Dimethoxy-4-quinazolinyl)-N-(2-furoyl)-1-piperazinethiocarboxamide]: 187 to 189 °C; `O=C(Nc1ccc(Oc2ccccc2)cc1)N1CCN(c2ncnc3cc4c(cc23)OCCO4)CC1` [Compound 372, 4-(6,7-Ethylenedioxy-4-quinazolinyl)-N-(4-phenoxyphenyl)-1-piperazinecarboxamide]: 227 to 228 °C; `COc1cc2ncnc(N3CCN(C(=S)Nc4cccc(NC(C)=O)c4)CC3)c2cc1OC` [Compound 226, N-(3-Acetamidophenyl)-4-(6,7-dimethoxy-4-quinazolinyl)-1-piperazinethiocarboxamide]: 207 to 208 °C.
In turn, `FC(F)(F)Oc1ccc2nccc(N3CCN(C(=S)NCc4ccccc4)CC3)c2c1` [Compound 403, N-Benzyl-4-(6-trifluoromethoxy-4-quinolyl)-1-piperazinethiocarboxamide] yielded a melting point of 70 to 71 °C.

A word on the melting point: it is the temperature, or range, at which the solid turns liquid.
